Test results reported in ChEMBL document CHEMBL1201862, “PubChem BioAssay data set” (2004).
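Where inhibition never reached the appropriate level, the endpoint shown equals the highest concentration tested. Otherwise, values were interpolated linearly from a five-concentration, 48-hour dose response in 96-well plates. At the GI50, growth is halved.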 Active and inactive are the calls of the source. Rule as the data show it: active = GI50 up to about 1.1 µM and inactive = higher.

What was measured:
Test in all cases: NCI-60 cell line screen, 48 h
786-0 = tested on: 786-0
A549 = tested on: A549
BT-549 = tested on: BT-549
CAKI-1 = tested on: CAKI-1
CCRF-CEM = tested on: CCRF-CEM
COLO 205 = tested on: COLO 205
DU-145 = tested on: DU-145
EKVX = tested on: EKVX
HCC 2998 = tested on: HCC 2998
HCT-116 = tested on: HCT-116
HCT-15 = tested on: HCT-15
HL-60 = tested on: HL-60
HOP-62 = tested on: HOP-62
HOP-92 = tested on: HOP-92
HT-29 = tested on: HT-29
Hs-578T = tested on: Hs-578T
IGROV-1 = tested on: IGROV-1
K562 = tested on: K562
KM12 = tested on: KM12
LOX IMVI = tested on: LOX IMVI
M14 = tested on: M14
MCF7 = tested on: MCF7
MDA-MB-231 = tested on: MDA-MB-231
MDA-MB-435 = tested on: MDA-MB-435
MDA-N = tested on: MDA-N
MOLT-4 = tested on: MOLT-4
Malme-3M = tested on: Malme-3M
NCI-H226 = tested on: NCI-H226
NCI-H522 = tested on: NCI-H522
NCI/ADR-RES = tested on: NCI/ADR-RES
OVCAR-3 = tested on: OVCAR-3
OVCAR-4 = tested on: OVCAR-4
OVCAR-5 = tested on: OVCAR-5
OVCAR-8 = tested on: OVCAR-8
PC-3 = tested on: PC-3
RPMI-8226 = tested on: RPMI-8226
RXF 393 = tested on: RXF 393
SF-268 = tested on: SF-268
SF-539 = tested on: SF-539
SK-MEL-28 = tested on: SK-MEL-28
SK-MEL-2 = tested on: SK-MEL-2
SK-MEL-5 = tested on: SK-MEL-5
SK-OV-3 = tested on: SK-OV-3
SN12C = tested on: SN12C
SNB-19 = tested on: SNB-19
SNB-75 = tested on: SNB-75
SR = tested on: SR
SW-620 = tested on: SW-620
T47D = tested on: T47D
TK-10 = tested on: TK-10
U-251 = tested on: U-251
UACC-257 = tested on: UACC-257
UACC-62 = tested on: UACC-62
UO-31 = tested on: UO-31
A498 = tested on: A498
ACHN = tested on: ACHN
NCI-H23 = tested on: NCI-H23
NCI-H460 = tested on: NCI-H460
SF-295 = tested on: SF-295

## CN/C(=N\N)NS(=O)(=O)c1cc(C)c(Cl)cc1S
786-0
  GI50: 27.3 µM (inactive)
A549
  GI50: 29.9 µM (inactive)
BT-549
  GI50: 38.5 µM (inactive)
CAKI-1
  GI50: 45.8 µM (inactive)
CCRF-CEM
  GI50: 43.6 µM (inactive)
COLO 205
  GI50: > 100 µM (inactive)
DU-145
  GI50: > 100 µM (inactive)
EKVX
  GI50: 81.7 µM (inactive)
HCC 2998
  GI50: 87.7 µM (inactive)
HCT-116
  GI50: 66.5 µM (inactive)
HCT-15
  GI50: 48.2 µM
HL-60
  GI50: 41.5 µM (inactive)
HOP-62
  GI50: > 100 µM (inactive)
HOP-92
  GI50: 75.2 µM (inactive)
HT-29
  GI50: 40.4 µM (inactive)
Hs-578T
  GI50: 20.6 µM (inactive)
IGROV-1
  GI50: 86.3 µM (inactive)
K562
  GI50: 49.2 µM (inactive)
KM12
  GI50: 76 µM (inactive)
LOX IMVI
  GI50: 96.4 µM (inactive)
M14
  GI50: 54.5 µM (inactive)
MCF7
  GI50: 62.4 µM (inactive)
MDA-MB-231
  GI50: > 100 µM (inactive)
MDA-MB-435
  GI50: 43.5 µM (inactive)
MDA-N
  GI50: > 100 µM (inactive)
MOLT-4
  GI50: > 10 µM (inactive)
Malme-3M
  GI50: 46.8 µM (inactive)
NCI-H226
  GI50: > 100 µM (inactive)
NCI-H522
  GI50: 25.2 µM (inactive)
NCI/ADR-RES
  GI50: > 100 µM (inactive)
OVCAR-3
  GI50: 57.5 µM (inactive)
OVCAR-4
  GI50: > 100 µM (inactive)
OVCAR-5
  GI50: 93.5 µM (inactive)
OVCAR-8
  GI50: 96.2 µM (inactive)
PC-3
  GI50: > 100 µM (inactive)
RPMI-8226
  GI50: 74 µM (inactive)
RXF 393
  GI50: 33.4 µM (inactive)
SF-268
  GI50: > 100 µM (inactive)
SF-539
  GI50: > 100 µM (inactive)
SK-MEL-28
  GI50: > 100 µM (inactive)
SK-MEL-2
  GI50: 69.2 µM (inactive)
SK-MEL-5
  GI50: 30.7 µM (inactive)
SK-OV-3
  GI50: > 100 µM (inactive)
SN12C
  GI50: > 100 µM (inactive)
SNB-19
  GI50: > 100 µM (inactive)
SNB-75
  GI50: > 100 µM (inactive)
SR
  GI50: 44 µM (inactive)
SW-620
  GI50: 48.5 µM (inactive)
T47D
  GI50: 24.4 µM (inactive)
TK-10
  GI50: 77.4 µM (inactive)
U-251
  GI50: 64.1 µM (inactive)
UACC-257
  GI50: > 100 µM (inactive)
UACC-62
  GI50: 53.7 µM (inactive)
UO-31
  GI50: 25.1 µM (inactive)

## CCOC(=O)C1=C(C)NC(=O)N([N+](=O)[O-])C1c1ccccc1C(F)(F)F (stereo not drawn)
A498
  GI50: > 100 µM (inactive)
A549
  GI50: > 100 µM (inactive)
ACHN
  GI50: > 100 µM (inactive)
BT-549
  GI50: 54.6 µM (inactive)
CAKI-1
  GI50: 23.1 µM (inactive)
CCRF-CEM
  GI50: 26.6 µM (inactive)
COLO 205
  GI50: > 100 µM (inactive)
DU-145
  GI50: 94.2 µM (inactive)
HCT-116
  GI50: 35.7 µM (inactive)
HCT-15
  GI50: 55.2 µM
HL-60
  GI50: 55.2 µM (inactive)
HOP-62
  GI50: 70.6 µM (inactive)
HOP-92
  GI50: > 100 µM (inactive)
HT-29
  GI50: 75.2 µM (inactive)
Hs-578T
  GI50: 70.3 µM (inactive)
IGROV-1
  GI50: > 100 µM (inactive)
K562
  GI50: 72.6 µM (inactive)
LOX IMVI
  GI50: 31 µM (inactive)
M14
  GI50: 43.5 µM (inactive)
MCF7
  GI50: 52.6 µM (inactive)
MDA-MB-231
  GI50: > 100 µM (inactive)
MDA-MB-435
  GI50: 45.1 µM (inactive)
MDA-N
  GI50: 21.8 µM (inactive)
MOLT-4
  GI50: > 100 µM (inactive)
Malme-3M
  GI50: 24.3 µM (inactive)
NCI-H226
  GI50: > 100 µM (inactive)
NCI-H23
  GI50: > 100 µM (inactive)
NCI-H460
  GI50: > 100 µM (inactive)
NCI/ADR-RES
  GI50: 34.1 µM (inactive)
OVCAR-3
  GI50: 47.5 µM (inactive)
OVCAR-4
  GI50: 27.2 µM (inactive)
OVCAR-5
  GI50: > 100 µM (inactive)
OVCAR-8
  GI50: 69.7 µM (inactive)
PC-3
  GI50: 33.3 µM (inactive)
RPMI-8226
  GI50: 23.4 µM (inactive)
RXF 393
  GI50: 61 µM (inactive)
SF-268
  GI50: 53.1 µM (inactive)
SF-295
  GI50: 57.7 µM (inactive)
SF-539
  GI50: 28 µM (inactive)
SK-MEL-28
  GI50: 24.8 µM (inactive)
SK-MEL-2
  GI50: > 100 µM (inactive)
SK-MEL-5
  GI50: 42.3 µM (inactive)
SK-OV-3
  GI50: > 100 µM (inactive)
SN12C
  GI50: > 100 µM (inactive)
SNB-19
  GI50: > 100 µM (inactive)
SR
  GI50: 31.8 µM (inactive)
SW-620
  GI50: 52.6 µM (inactive)
T47D
  GI50: 35.4 µM (inactive)
TK-10
  GI50: 98.2 µM (inactive)
U-251
  GI50: 69 µM (inactive)
UACC-257
  GI50: > 100 µM (inactive)
UACC-62
  GI50: 49.4 µM (inactive)
UO-31
  GI50: > 100 µM (inactive)

## O=C1CN(c2ccccc2)Cc2nc(Cl)ccc2N1
786-0
  GI50: > 100 µM (inactive)
A549
  GI50: > 100 µM (inactive)
ACHN
  GI50: > 100 µM (inactive)
BT-549
  GI50: > 100 µM (inactive)
CAKI-1
  GI50: > 100 µM (inactive)
CCRF-CEM
  GI50: > 100 µM (inactive)
COLO 205
  GI50: > 100 µM (inactive)
DU-145
  GI50: > 100 µM (inactive)
EKVX
  GI50: > 100 µM (inactive)
HCC 2998
  GI50: > 100 µM (inactive)
HCT-116
  GI50: > 100 µM (inactive)
HCT-15
  GI50: > 100 µM
HL-60
  GI50: > 100 µM (inactive)
HOP-62
  GI50: > 100 µM (inactive)
HOP-92
  GI50: 57.4 µM (inactive)
HT-29
  GI50: > 100 µM (inactive)
Hs-578T
  GI50: 61.9 µM (inactive)
IGROV-1
  GI50: > 100 µM (inactive)
K562
  GI50: > 100 µM (inactive)
KM12
  GI50: > 100 µM (inactive)
LOX IMVI
  GI50: > 100 µM (inactive)
M14
  GI50: > 100 µM (inactive)
MCF7
  GI50: > 100 µM (inactive)
MDA-MB-231
  GI50: > 100 µM (inactive)
MDA-MB-435
  GI50: > 100 µM (inactive)
MDA-N
  GI50: > 100 µM (inactive)
MOLT-4
  GI50: > 100 µM (inactive)
Malme-3M
  GI50: 58.1 µM (inactive)
NCI-H226
  GI50: > 100 µM (inactive)
NCI-H460
  GI50: > 100 µM (inactive)
NCI-H522
  GI50: > 100 µM (inactive)
NCI/ADR-RES
  GI50: 94 µM (inactive)
OVCAR-4
  GI50: > 100 µM (inactive)
OVCAR-5
  GI50: > 100 µM (inactive)
OVCAR-8
  GI50: > 100 µM (inactive)
PC-3
  GI50: 79.4 µM (inactive)
RPMI-8226
  GI50: > 100 µM (inactive)
RXF 393
  GI50: 25.6 µM (inactive)
SF-268
  GI50: > 100 µM (inactive)
SF-295
  GI50: > 100 µM (inactive)
SF-539
  GI50: > 100 µM (inactive)
SK-MEL-28
  GI50: > 100 µM (inactive)
SK-MEL-2
  GI50: > 100 µM (inactive)
SK-MEL-5
  GI50: > 100 µM (inactive)
SK-OV-3
  GI50: > 100 µM (inactive)
SN12C
  GI50: > 100 µM (inactive)
SNB-19
  GI50: > 100 µM (inactive)
SNB-75
  GI50: 40.4 µM (inactive)
SR
  GI50: > 100 µM (inactive)
SW-620
  GI50: > 100 µM (inactive)
T47D
  GI50: > 100 µM (inactive)
TK-10
  GI50: > 100 µM (inactive)
U-251
  GI50: > 100 µM (inactive)
UACC-257
  GI50: > 100 µM (inactive)
UACC-62
  GI50: 95.5 µM (inactive)
UO-31
  GI50: > 100 µM (inactive)
